Entries after “also recorded” stand apart in the source; their conditions may differ. Like-named read-outs stand apart in the source and are kept apart here.
What was measured:
[1] = tested on: diabetic neuropathy (STZ model); conditions: for maximum reversal of mechanical response threshold: 2 h post-administration
Procedure: Diabetic neuropathy (STZ) model. Diabetes is induced by a single IP injection of […]. Streptozocin solution (100 μl/10 g, Sigma-aldrich S0130, batch #WXBB7152V). Glycemia is tested before, and 7 days after injection.
The mechanical threshold response of the operated mice was measured with calibrated von Frey filaments (“up/down” method) and the 50% threshold (g) was calculated. The experimenter was blinded to mice treatment. […] Compounds were diluted in PBS (vehicle) and administered s.c. at 10 μL/g, in doses as indicated (gabapentine, 5MPK). Statistical analysis was performed using GraphPad Prism 6.0.

[2] = tested on: inflammatory pain (CFA model); test: Complete Freund's Adjuvant (CFA) model of inflammatory pain, von Frey; assay type: in vivo, mice; conditions: for relief of evoked pain (paw withdrawal threshold): day 2 after CFA
Procedure: Inflammatory pain: Animals were habituated to the experimental room for a minimum of 60 min before initiation of the experiment. Mechanical pain threshold was determined by von Frey measurements of both hind paws. Injury was induced on the right hind paw, whereas the contralateral left hind paw was used as internal control of the animal. Von Frey filaments ranging from 0.04 to 2 g (g=gram-forces) (0.04, 0.07, 0.16, 0.4, 0.6, 1.0, 1.4, 2.0) were used for determination of mechanical pain threshold. In the current experiment filaments in ascending order were applied to the frontocentral plantar surface of the hind paws. Mice were placed in PVC plastic boxes (11.5 cm×14 cm) on a wire mesh, and allowed 30 min habituation prior of […]. Each von Frey hair was applied five times with adequate resting periods between each application and number of withdrawals recorded. The withdrawal threshold was determined as the von Frey filament eliciting at least 3 positive trials out of the 5 applications in two consecutive filaments. A positive trial was defined as sudden paw withdrawal, flinching and/or paw licking induced by the filament. The inflammatory pain was induced by injection of 50 μL undiluted Complete Freund's Adjuvant (CFA) (F5881, Sigma) unilaterally into the intraplantar surface of the right hind paw, whereas control mice were injected with the same amount of 0.9% saline (B. Braun, Germany). All intraplantar injections were performed with and insulin needle (0.3 mL BD Micro-Fine) while the animal was under isoflurane anesthesia (2%) for maximum 60 seconds. Von Frey was applied up to 11 days after unilateral CFA injection depending on the experiment. […] Statistical analysis was performed using GraphPad Prism 6.0. Two-way RM ANOVA followed by Bonferroni's post-hoc test. Significance level set to p<0.05.
Inflammatory pain (CFA model): Animals were habituated to the experimental room for a minimum of 60 min before initiation of the experiment. Mechanical pain threshold was determined by von Frey measurements of both hind paws. Injury was induced on the right hind paw, whereas the contralateral left hind paw was used as internal control of the animal.
Von Frey filaments ranging from 0.04 to 2 g (g=gram-forces) (0.04, 0.07, 0.16, 0.4, 0.6, 1.0, 1.4, 2.0) were used for determination of mechanical pain threshold. In the current experiment filaments in ascending order were applied to the frontocentral plantar surface of the hind paws. Mice were placed in PVC plastic boxes (11.5 cm×14 cm) on a wire mesh, and allowed 30 min habituation prior of testing. Each von Frey hair was applied five times with adequate resting periods between each application and number of withdrawals recorded. The withdrawal threshold was determined as the von Frey filament eliciting at least 3 positive trials out of the 5 applications in two consecutive filaments. A positive trial was defined as sudden paw withdrawal, flinching and/or paw licking induced by the filament.
The inflammatory pain was induced by injection of 50 μL undiluted Complete Freund's Adjuvant (CFA) (F5881, Sigma) unilaterally into the intraplantar surface of the right hind paw, whereas control mice were injected with the same amount of 0.9% saline (B. Braun, Germany). All intraplantar injections were performed with an insulin needle (0.3 mL BD Micro-Fine) while the animal was under isoflurane anesthesia (2%) for maximum 60 seconds. Von Frey was applied up to 6 days after unilateral CFA injection depending on the experiment. The peptides were administered s.c. (10 μL/g)), and at different concentrations (0.4 and 2 μmol/kg). Statistical analysis was performed using GraphPad Prism 6.0. Two-way RM ANOVA followed by Dunnett's post-hoc test. Significance level set to p<0.05.

[3] = Small angle X-ray scattering, self-assembly in solution; assay type: physicochemical
Procedure: Concentration series of […] ranging from 0.18 mg/ml to 9.37 mg/mL was prepared in buffer containing 50 mM Tris (pH 7.4), 125 mM NaCl. Samples were measured at the P12 SAXS Beamline, […], Hamburg, Germany. Preliminary data reduction including radial averaging and conversion of the data into absolute scaled scattering intensity, I(q), as a function of the scattering vector q, where q=4π sin(θ)/λ ([…]=half scattering angle) were done using the standard procedures at the beamline. The modelling of the SAXS data was performed in two ways, firstly using the pair distance distribution function and subsequently using a molecular constrained core-shell model for polydisperse spheres. In brief, it was assumed that the peptide aggregated into polydisperse spherical micelles. Here, the hydrophobic tails form the core and these are surrounded by the hydrophilic part (the shell) in a spherical micelle. […] This was calculated by counting the number of electrons in the molecular structure and multiplying by the scattering length of the electron. For the scattering length density calculations, it was assumed that the molecular volume of the C13 alkyl chain was 377 Å3 as estimated from Tanfords empirical formula (V=27.4+26.9nC) where nC denote the number of carbons. i.e. 13 in this case. The hydrophilic headgroup was as a first estimate assumed to have a mass density corresponding to that of a soluble protein (i.e. 1.35 g/cm^3), this yielded a molecular volume of 2078 Å3. […] Excess scattering length densities were then calculated in relation to water (9.4e101/cm^2). Using this molecular restrained model, the volumes of the core and of the shell were coupled internally through the fitted aggregation number, Nagg. The polydispersity was described by a Gauss function of Nagg. The Gauss was truncated at ±3sigma. The model module “[…]” from the […] software was used for the fitting. As usual a small surface roughness and a small constant background was also necessary for the model to converge. Scattering data was merged; buffer subtracted and binned using WillItRebin with a binning factor of 1.02. The pair distance distribution functions (pddf) were fitted using bayesapp (http://www.bayesapp.org/) in the interval [0.0122-0.4] Å^-1, fitting parameters are reported in the data collection table below.

[4] = pair distance distribution function analysis

Which results are given for `CCCCCCCCCCCCCC(=O)N(CCOCCOCCC(=O)N[C@@H](Cc1c[nH]cn1)C(=O)N[C@@H](Cc1c[nH]c2ccccc12)C(=O)N[C@@H](CC(C)C)C(=O)N[C@@H](CCCCN)C(=O)N[C@H](C(=O)O)C(C)C)CCOCCOCCC(=O)N[C@@H](Cc1c[nH]cn1)C(=O)N[C@@H](Cc1c[nH]c2ccccc12)C(=O)N[C@@H](CC(C)C)C(=O)N[C@@H](CCCCN)C(=O)N[C@H](C(=O)O)C(C)C` [myr-NPEG4-(HWLKV)2]?
analgesic effect ([1]; s.c. 2 μmol/kg): weaker effect; maximum reversal of mechanical response threshold ([1]; s.c. 2 μmol/kg): 49.2±7.9 % of baseline; analgesic effect ([1]; s.c. 10 μmol/kg): strong and long-lasting effect up to 4 h; maximum reversal of mechanical response threshold ([1]; s.c. 10 μmol/kg): 67.3±4.5 % of baseline; paw withdrawal threshold of uninjured contralateral paw ([2]; CFA model, Example 7): remained unaltered; relief of evoked pain (paw withdrawal threshold) ([2]; intrathecal 20 μM, 7 μL, 1 and 5 h): significant pain relief at 1 hour and 5 hours; relief of evoked pain (paw withdrawal threshold) ([2]; intrathecal 20 μM, 7 μL, 24 h): no effect 24 hours after administration; relief of evoked pain (paw withdrawal threshold), lipid variants ([2]; s.c. 2.0 μmol/kg in PBS, day 2-5 after CFA, tested 2 and 5 h): full and highly significant pain relief; relief of evoked pain (paw withdrawal threshold) ([2]; s.c. 2 μmol/kg, tested 1, 5, 24 h): significant pain relief when tested 1 hour post injection; relief of evoked pain (paw withdrawal threshold), PDZ motif variants ([2]; s.c. 2 μmol/kg, day 5 after CFA): relieved pain; relief of evoked pain (paw withdrawal threshold) ([2]; s.c. 10 μmol/kg, tested 1, 5, 24 h): significant pain relief when tested 1 hour post injection; relief of evoked pain (paw withdrawal threshold) ([2]; s.c. 50 μmol/kg, tested 1, 5, 24 h): significant pain relief when tested 1 hour post injection; also recorded: significant pain relief up to 5 hours post injection; n myr-NPEG4-(HWLKV)2, core shell model ([3]; 300 μM): 19; n myr-NPEG4-(HWLKV)2, core shell model ([3]; 400 μM): 22; n myr-NPEG4-(HWLKV)2, core shell model ([3]; 1000 μM): 22; n myr-NPEG4-(HWLKV)2, core shell model ([3]; 3000 μM): 21; n myr-NPEG4-(HWLKV)2, core shell model ([3]; 5000 μM): 19; number of individual molecules per micelle ([3]; core-shell model): 19-22; outer radius of spherical core-shell micelle ([3]; core-shell model): 20-24 Å; number of individual molecules per assembly [3, 4]: 5-8; radius of gyration (Rg) of micellar structures [3, 4]: 20-23.6 Å

— patent publication US20230346948A1, “Lipid conjugated peptide inhibitors of PICK1” (University of Copenhagen, priority 2020, published 2023)
